What was measured:
HT-29 [1] = assay: Inhibition of cells growth by colorimetric assay (SRB), HT-29; type: cell-based; conditions: SRB, 48 hours exposure; for GI50 / LC50 (concentration for 50% cell killing): Homo sapiens, HT-29, 48 h; for HT-29 TGI / GI50: HT-29; for GI50: read-out: HT-29 GI50; for LC50 (concentration for 50% cell killing): read-out: HT-29 LC50, HT-29
How it was run: (§1)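 Human cancer and endothelial lines are seeded at 5×10^3 cells per well and, after 18 h, treated for 48 h with compound dissolved in DMSO/EtOH/PBS (0.5:0.5:99) at 10 to 10^−8 μg/ml. Cell mass is quantified by SRB staining (OD 490 nm), and growth inhibition, total growth inhibition and cell kill are calculated from triplicate wells.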

A-549 [2] = assay: Inhibition of cells growth by colorimetric assay (SRB), A-549; type: cell-based; conditions: SRB, 48 hours exposure; for GI50 / LC50 (concentration for 50% cell killing): Homo sapiens, A549, 48 h; for A-549 TGI / GI50: A-549; for GI50: read-out: A-549 GI50; for LC50 (concentration for 50% cell killing): read-out: A-549 LC50, A-549
How it was run: as §1

A-549 [3] = assay: Inhibition of cell growth by counting cells, A-549; type: cell-based, human; conditions: Homo sapiens, A549, 72 h; three days of incubation; read-out: IC50 (molar) A-549
How it was run: (§2)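 Human tumor cells were seeded at 1×10^4 cells per well in EMEM with 5% FCS containing graded compound concentrations, in duplicate, and incubated three days at 37° C, 5% CO2. Cells were then trypsinized and counted electronically; IC50 came from dose-response curves of percent growth versus drug-free controls.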

HT-29 [4] = assay: Inhibition of cell growth by counting cells, HT-29; type: cell-based, human; conditions: Homo sapiens, HT-29, 72 h; three days of incubation; read-out: IC50 (molar) HT-29
How it was run: as §2

P-388 = assay: Inhibition of cell growth by counting cells, P-388; type: cell-based, mouse; conditions: Mus musculus, P388, 72 h; three days of incubation; read-out: IC50 (molar) P-388
How it was run: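 Mouse P-388 lymphoid neoplasm suspension cells seeded at 1×10^4 cells/well in EMEM 5% FCS containing graded sample concentrations, in duplicate alongside drug-free growth controls. Cells counted by Coulter counter; % growth vs untreated gives dose-response curves, IC50 = concentration producing 50% growth inhibition.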

MEL-28 = assay: Inhibition of cell growth by counting cells, MEL-28; type: cell-based, human; conditions: Homo sapiens, SK-MEL-28, 72 h; three days of incubation; read-out: IC50 (molar) MEL-28
How it was run: as §2

Excerpt for Heart: (§3) Toxicity was asssessed by the methods reported in Toxicology in Vitro, 15 (2001) 571-577, J. Luber Narod et al.: “Evaluation of the use of in vitro methodolodies as tools for screening new compounds for potential in vivo toxicity”.
Excerpt for Kidney: as §3
Excerpt for Liver: as §3
Excerpt for Myelo: as §3
Excerpt for Skeletal: as §3

Row | Structure (SMILES) | Toxicity Data Heart (Heart) | HT-29 TGI (HT-29 [1]) | GI50 (HT-29 [1]) | LC50 (concentration for 50% cell killing) (HT-29 [1]) | Toxicity Data Skeletal (Skeletal) | A-549 TGI (A-549 [2]) | GI50 (A-549 [2]) | LC50 (concentration for 50% cell killing) (A-549 [2]) | Toxicity Data Liver (Liver) | Toxicity Data Myelo (Myelo) | Toxicity Data Kidney (Kidney) | IC50 (A-549 [3]) | IC50 (HT-29 [4]) | IC50 (P-388) | IC50 (MEL-28)
1 | C=COC(=O)Oc1cc2c(cc1OC)[C@@]1(CS[C@@H]3c4c(OC(C)=O)c(C)c5c(c4[C@H](COC1=O)N1C3[C@H]3c4c(cc(C)c(OC)c4OC(=O)OC=C)C[C@@H]([C@@H]1O)N3C)OCO5)N(C(=O)OC=C)CC2 (stereo partly drawn) [Compound 99] | 1.13E-07 | 1.03E-07 | 34.3 nM | 10300 nM | 9.71E-08 | 9.96E-08 | 43.5 nM | 10300 nM | 4.80E-08 | 1.45E-07 | 2.56E-08 |  |  |  | 
2 | C=COC(=O)Oc1cc2c(cc1OC)[C@@]1(CS[C@@H]3c4c(OC(C)=O)c(C)c5c(c4[C@H](COC1=O)N1C3[C@H]3c4c(cc(C)c(OC)c4OC(=O)OC=C)C[C@@H]([C@@H]1O)N3C)OCO5)NCC2 (stereo partly drawn) [Compound 92] | 2.80E-08 | 1.11E-09 | 1.11 nM | 55.5 nM | 1.21E-08 | 7.77E-09 | 3.33 nM | 33.3 nM | 2.30E-08 | 1.92E-08 | 1.35E-08 |  |  |  | 
3 | CCCCCCCC(=O)Oc1cc2c(cc1OC)[C@@]1(CS[C@@H]3c4c(OC(C)=O)c(C)c5c(c4[C@H](COC1=O)N1C3[C@@H]3N[C@@H](Cc4cc(C)c(OC)c(O)c43)[C@@H]1O)OCO5)NCC2 (stereo partly drawn) [Compound 213] | 1.82E-07 |  |  |  | 1.72E-07 |  |  |  | 3.93E-08 | 2.70E-08 | 1.48E-08 | 0.114 nM | 0.114 nM |  | 
4 | COc1cc2c(cc1OC(C)=O)CCN[C@]21CS[C@@H]2c3c(OC(C)=O)c(C)c4c(c3[C@H](COC1=O)N1C2[C@H]2c3c(cc(C)c(OC)c3O)C[C@@H]([C@@H]1O)N2C)OCO4 (stereo partly drawn) [Compound 57] | 3.48E-09 |  |  |  |  |  |  |  | 4.66E-09 | 1.85E-08 | 3.35E-09 | 0.149 nM | 0.149 nM | 0.149 nM | 0.149 nM
5 | CCCC(=O)Oc1c(C)c2c(c3c1[C@H]1SC[C@]4(NCCc5cc(O)c(OC)cc54)C(=O)OC[C@@H]3N3C1[C@H]1c4c(cc(C)c(OC)c4O)C[C@@H]([C@@H]3O)N1C)OCO2 (stereo partly drawn) [Compound 163] | 4.80E-07 | 1.14E-09 | 0.38 nM | 3.8 nM | 2.53E-06 | 2.53E-09 | 0.38 nM | 8.86 nM | 9.80E-07 | 2.38E-07 | 6.33E-07 |  |  |  | 
